Reference: ChEMBL document CHEMBL1156393, “Pibocin B, the first N-O-methylindole marine alkaloid, a metabolite from the Far-Eastern ascidian Eudistoma species” (2001)
Values after ≈ are worked out from the molar mass of the structure shown.

Assay: Cytotoxicity against mouse EAC cells
Assay type: functional
Settings: Ehrlich, read-out: ED50 (the source's name)

In the case of `COn1c(Br)c2c3c(cccc31)[C@H]1C[C@@H](C)CN(C)[C@@H]1C2` [PIBOCIN B], the EC50 is reported as 25 µg/mL (≈ 71.6 µM).
